In patent publication US6262095A, “Use of tricyclic derivatives of 1,4-dihydro-1,4-dioxo-1H-naphthalene, novel compounds obtained and their application in theraphy” (Laboratoire Innothera, priority 1995, dated 2001):

Columns and labels:
[1] = tested on: fibroblastic cell lines of mice (L929); test: Cytotoxicity on L929 fibroblastic cell lines (neutral red incorporation); format: cell-based, mouse; conditions: L929, up to concentrations equal to their solubility in an aqueous medium
Excerpt: (§1) Moreover, the compounds of the invention and their possible salts have a very low toxicity.

mice = test: Single oral administration toxicity in mice; format: in vivo, mouse
Excerpt: as §1

[2] = tested on: hyperpermeability induced by zymosan in rats; test: Inflammatory hyperpermeability induced by zymosan in rats; format: in vivo, rat (Wistar); conditions: rat, oral
Experimental: The vascular permeability is studied in vivo by measuring the extravasation of albumin, the quantity of which is determined using an albumin-binding dye (Evans blue).
The hyperpermeability is induced by the intradermal injection of a solution of histamine, bradykinin, or zymosan.
The abdominal walls of the rats (Wistar, 200-230 g) are shorn 1 h before the start of the experiment. The product to be tested is injected by the intraperitoneal route or orally 1-4 h before the sacrifice. The rats are anesthetized with a halothane mixture. They then receive an intradermal injection in their abdomen of 0.10 or 0.15 mL (or for histamine 6.7 or […]) of inflammatory agent and an intravenous injection of 1 mL of 0.5% Evans blue solution in the vein of the penis. These injections are carried out 30 min before the sacrificing.
30 min after these two injections, the rats are sacrificed by cervical dislocation.
At the site of the injection of the inflammatory agent, the skin is cut and placed into glass tubes with a ground[-glass] neck containing 3 mL of fuming hydrochloric acid. […] After allowing the preparation to stand for 30 min, 7 mL of dichloromethane are added. The tubes are periodically agitated for 1 h. The aqueous phase is eliminated by aspiration, and the organic "dichloromethane" phase is filtered. The optical densities are quantified by absorption spectrophotometry at a wavelength of 620 nm, against a blank [control] containing only dichloromethane. The averages of the optical densities of the different lots of treated or control animals are calculated, then a percentage of variation of the values corresponding to the treated [experimental] animals compared to those of the control animals is calculated.

[3] = tested on: saphenous vein in rabbits; test: Contractile effect on the rabbit saphenous vein precontracted by a depolarizing physiological solution (K+ 40 mM); format: cell-based; conditions: Oryctolagus cuniculus, precontracted with 40 mM potassium; for Emax: % of maximum contraction induced by hyperpotassic solutions; for EC50: read-out: ED50 (the source's name)
Experimental: The contractile effects are measured in vitro under static conditions on vascular capacitance or resistance rings of saphenous, femoral, jugular, mesenteric, and caval veins . . . and on femoral, carotid, basilar, or mesenteric arteries, as well as the thoracic or abdominal aorta . . . in rats (Wistar, 200-250 g), rabbits (New Zealand, 2-2.5 kg), guinea pigs (Dunkin Hartley 250-300 g).
The rings are placed in a chamber for isolated organs (25 mL for capacitance vessels and 2.5 mL for resistance vessels according to Mulvany), and maintained under isometric conditions using two rigid threads inserted inside the vessel, avoiding causing damage to the endothelium. The vessels are bathed in a modified Krebs solution (in mM: NaCl=118; KCl=4.6; CaCl2 =2.5; MgSO4 =1.2; KH2 PO4 =1.17; NaHCO3 =25; glucose=11), continuously aerated using a gaseous mixture of 95% O2 and 5% Co2, at a pH=7.4, and regulated by thermostat at 37° C. The rings are adjusted to their optimal point as far as the tension-length relationship is concerned. The tensions developed generate an electrical signal through the intermediary of a force sensor (Wheatstone bridge). […] The pharmacological studies are carried out after a few standardized preliminary contractile stimulations using a depolarizing solution (hyperpotassic type obtained by replacing NaCl with KCl in equimolar quantities), along with rinsings and periods of equilibration in a pure physiological solution. The presence of endothelium is verified by the relaxation induced by increasing the concentration of acetylcholine after the stabilization of a vascular precontraction.
The forces of contraction developed by the vascular rings in response to the different compounds are studied on quiescent or electrically stimulated vessels (5-8 Hz), by a "physiological" depolarizing hyperpotassic solution (KCl: 20, 40 mM), by noradrenaline (increasing concentrations), [and by] serotonin (increasing concentrations).
The contractions are expressed in mg force or as a percentage of the maximum contraction at the time of the depolarization with a "physiological" hyperpotassic solution.
The contractile effect of different compounds on the saphenous vein in rabbits, precontracted by a depolarizing "physiological" solution with a potassium concentration of 40 mM, is given as an illustration; the maximum effect produced by each compound is expressed as a percentage of the maximum contraction induced by depolarizing hyperpotassic solutions and as value of ED50): […]

[4] = tested on: capillary resistance of rats; test: Capillary resistance of rats after oral administration (petechial index); format: in vivo, rat (Wistar); conditions: rat
Experimental: The increase in the capillary resistance is evaluated by the modification of the petechial index (negative pressure inducing the extravasation of the erythrocytes), measured by a method derived from the angiosterrometer of Parrot.
The studies are carried out on male Wistar rats with an average weight of 200 g (approximate age six weeks). The bottom area of the back is shorn, then the hair is pulled by means of a paste based on a derivative of thioglycolic acid and calcium hydroxide. After approximately 30 min, the skin is abundantly rinsed and dried.
On the day of the study, the rats are maintained without constraint. A low pressure of 80 mm of mercury is applied. If the petechiae (extravasation of erythrocytes) have not appeared within 15 sec, the low pressure is increased as a countermeasure, keeping the suction cap at the same place.
The minimum low pressure where petechias appear, in mm of mercury, expresses the basal capillary resistance (before any treatment). Two measurements are made for each test at different sites on of the back.
The rats are treated by the oral route. […] All the measurements are done in the blind mode.
A percentage of variation in the capillary resistances of the animals treated compared to their basal capillary resistance is calculated for each compound studied, at each treatment time and compared with the control group (excipient only) or the reference group.

[5] = single oral administration of 500 mg/kg
[6] = single oral administration, 1 g/kg

SMILES	cytotoxicity (viability by neutral red incorporation) [1]	toxic effect and mortality (mice; [5])	Zymosan-induced hyperpermeability, effect after 2 h ([2]; 0.1 mg/kg)	Zymosan-induced hyperpermeability, effect after 4 h ([2]; 0.1 mg/kg)	Emax [3] [%]	EC50 [3] [nM]	observed signs (mice; [6])	toxic effect and mortality (mice; [6])	Increase of capillary resistance, effects after 4 h ([4]; 0.1 mg/kg)	Increase of capillary resistance, effect after 6 h ([4]; 0.1 mg/kg)	Zymosan-induced hyperpermeability, effect after 2 h ([2]; 5 mg/kg)	Zymosan-induced hyperpermeability, effect after 4 h ([2]; 5 mg/kg)	Increase of capillary resistance, effects after 4 h ([4]; 5 mg/kg)	Increase of capillary resistance, effect after 6 h ([4]; 5 mg/kg)	observed signs (mice; [5])
O=C1c2ccccc2C(=O)c2sc(-c3ccccc3)nc21 [Example j, 4,9-Dihydro-4,9-dioxo-2-phenylnaphtho[2,3-d]thiazole]	noncytotoxic	no observable toxic effect and no mortality	-14 % of the control	-32 % of the control	16 ± 6	30	–	–	–	–	–	–	–	–	–
Cc1nc2c(s1)C(=O)c1ccccc1C2=O [Example h, 4,9-Dihydro-4,9-dioxo-2-methylnaphtho[2,3-d]thiazole]	–	–	–	–	29 ± 6	86	diarrheas	no observable toxic effect and no mortality	19 % of the control	19 % of the control	–	–	–	–	–
O=C1c2ccccc2C(=O)c2sc(-c3ccsc3)nc21 [Example 21, 4,9-Dihydro-4,9-dioxo-2-(3-thienyl)-naphtho[2,3-d]thiazole]	noncytotoxic	–	–	–	–	–	–	–	–	–	-22 % of the control	-21 % of the control	10 % of the control	22 % of the control	–
O=C1c2ccccc2C(=O)c2oc(-c3ccccc3F)nc21 [Example 3, 4,9-Dihydro-4,9-dioxo-2-(2-fluorophenyl)-naphtho[2,3-d]oxazole]	noncytotoxic	no observable toxic effect and no mortality	-22 % of the control	-26 % of the control	17 ± 6	36	–	–	–	–	–	–	27 % of the control	18 % of the control	slight diarrheas
O=C1c2ccccc2C(=O)c2oc(-c3cccc(F)c3)nc21 [Example 4, 4,9-Dihydro-4,9-dioxo-2-(3-fluorophenyl)-naphtho[2,3-d]oxazole]	noncytotoxic	–	–	–	29 ± 11	42	–	–	–	–	–	–	–	–	–
O=C1c2ccccc2C(=O)c2sc(-c3cccs3)nc21 [Example 20, 4,9-Dihydro-4,9-dioxo-2-(2-thienyl)-naphtho[2,3-d]thiazole]	noncytotoxic	–	–	–	24 ± 4	110	–	–	–	–	–	–	–	–	–
O=C1c2ccccc2C(=O)c2oc(-c3ccccc3)nc21 [Example f, 4,9-Dihydro-4,9-dioxo-2-phenylnaphtho[2,3-d]oxazole]	noncytotoxic	–	-15 % of the control	-22 % of the control	15 ± 1	21	–	no observable toxic effect and no mortality	7 % of the control	17 % of the control	–	–	–	–	–
